The values below come from patent publication US6897237B2, “MMP-12 inhibitors” (Shionogi & Co. Ltd., priority 2000, dated 2005).

Where only a bound is given, the exact number is not on record here.

Holding throughout (type): biochemical
Holding throughout (settings): substrate MOCAc-Pro-Leu-Gly-Leu-A2Pr(DNP)-Ala-Arg-NH2

One assay addresses T1, MMP-2 (Homo sapiens, UniProt P08253).
T1 construct: purchased Calbiochem-Novabiochem International, Inc
T1 sequence (P08253 110-660): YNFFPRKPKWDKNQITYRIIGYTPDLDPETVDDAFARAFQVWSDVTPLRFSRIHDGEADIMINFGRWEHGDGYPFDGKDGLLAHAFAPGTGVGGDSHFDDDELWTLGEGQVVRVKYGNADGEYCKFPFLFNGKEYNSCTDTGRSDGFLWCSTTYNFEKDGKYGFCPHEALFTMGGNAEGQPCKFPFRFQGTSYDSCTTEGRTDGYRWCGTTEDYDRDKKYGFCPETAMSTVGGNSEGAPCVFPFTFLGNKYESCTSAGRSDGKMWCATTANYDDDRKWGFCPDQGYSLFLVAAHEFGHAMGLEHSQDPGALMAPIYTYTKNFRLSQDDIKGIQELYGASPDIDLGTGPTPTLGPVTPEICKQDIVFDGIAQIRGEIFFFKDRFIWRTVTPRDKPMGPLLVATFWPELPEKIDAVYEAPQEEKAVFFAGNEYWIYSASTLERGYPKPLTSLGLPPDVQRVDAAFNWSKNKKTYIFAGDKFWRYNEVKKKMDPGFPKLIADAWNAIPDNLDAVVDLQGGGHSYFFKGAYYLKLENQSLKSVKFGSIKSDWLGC
Nature of the assay: Assay for inhibitory activities on MMPs (fluorogenic peptide substrate): MMP-2. Here is the method: MMP-2 was purchased from Calbiochem-Novabiochem International, Inc.
(§1) The enzymatic activity on MMPs was analyzed by the method described in “C. Graham Knight, Frances Willenbrock and Gillian Murphy: A novel coumarin-labelled peptide for sensitive continuous assays of the matrix metalloproteinases: FEBS LETT., 296, (1992), 263-266”. The substrate: MOCAc-Pro-Leu-Gly-Leu-A2Pr(DNP)-Ala-Arg-NH2 was purchased from Peptide Institute, Inc., Osaka, Japan. The measurement of the inhibitory activities (IC50) was carried out by the following four methods;
(§2) (A) Reaction with substrate, enzyme (MMPs) and inhibitor
(§3) (B) Reaction with substrate and inhibitor, without enzyme
(§4) (C) Reaction with substrate and enzyme (MMPs), without inhibitor
(§5) (D) Reaction with substrate only
(§6) IC50 values were calculated by using the following formula and each fluorescence values of above four methods (A to D).
(§7) % inhibition={1−(A−B)/(C−D)}×100
(§8) IC50 means the concentration required to inhibit 50% of the enzyme activity.

In another assay the target is T2, MMP-9 (Homo sapiens, UniProt P14780).
T2 construct: endogenous in cells; host or cells: HT1080 human fibrosarcoma cells, TPA-stimulated; purified in house from conditioned medium
T2 sequence (P14780 107-707 limits assumed): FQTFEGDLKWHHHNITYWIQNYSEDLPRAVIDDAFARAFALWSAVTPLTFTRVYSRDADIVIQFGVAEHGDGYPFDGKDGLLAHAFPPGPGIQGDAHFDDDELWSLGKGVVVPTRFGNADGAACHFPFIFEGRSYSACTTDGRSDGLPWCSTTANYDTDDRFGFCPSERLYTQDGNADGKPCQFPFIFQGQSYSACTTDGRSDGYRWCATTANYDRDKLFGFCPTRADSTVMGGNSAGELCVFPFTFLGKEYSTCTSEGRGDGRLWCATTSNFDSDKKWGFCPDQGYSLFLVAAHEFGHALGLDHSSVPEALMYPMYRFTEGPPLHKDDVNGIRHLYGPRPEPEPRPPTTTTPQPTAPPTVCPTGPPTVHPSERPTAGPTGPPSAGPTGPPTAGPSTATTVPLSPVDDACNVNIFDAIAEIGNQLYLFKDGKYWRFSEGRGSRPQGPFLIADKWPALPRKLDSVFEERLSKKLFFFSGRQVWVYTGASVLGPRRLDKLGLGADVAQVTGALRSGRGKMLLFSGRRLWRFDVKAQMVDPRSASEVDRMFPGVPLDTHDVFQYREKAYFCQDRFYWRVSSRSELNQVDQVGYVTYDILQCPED
Nature of the assay: Assay for inhibitory activities on MMPs (fluorogenic peptide substrate): MMP-9.
From the text: MMP-9 was isolated and purified by using a combination of procedures described in previous reports as follows. Yasunori Okada, Yukio Gonoji, Katsumi Naka, Katsuro Tomita, Isao Nakanishi, Kazushi Iwata, Kyoko Yamashita, and Taro Hayakawa: Matrix metalloproteinase 9 (92-kDa gelatinase/type IV collagenase) from HT1080 human fibrosarcoma cells. Purification and activation of the precursor and enzymic properties. J. Biol. Chem., 267 (1.992) 21712-21719. Yasunori Okada, Tatsuhisa Morodomi, Jan J, Enghild, Ko Suzuki, Atsushi Yasui, Isao Nakanishi, Guy Salvesen and Hideaki Nagase: Matrix metalloproteinase 2 from human rheumatoid synovial fibroblasts. Purification and activation of the precursor and enzymic properties. Eur. J. Biochem. 194 (1990) 721-730. Robin V Ward, Rosalind M Hembry, John J Reynolds and Gillian Murphy: The purification of tissue inhibitor of metalloproteinase-2 from its 72 kDa progelatinase complex. Biochem. J. 278 (1991) 179-187.
Briefly, human fibrosarcoma ATCC HT1080 cell line was cultured to confluent in Dulbecco's Modified Medium (DMEM) containing 10% fetal-calf serum at 37° C. for 48 hours. Subsequently, the medium of confluent culture was changed to serum-free DMEM medium. To obtain MMP-9, Phorbol-12-myristate-13-acetate (TPA) must be added to this serum-free DMEM medium at a concentration of 50 ng/ml. The TPA treated medium was centrifuged at 3000 rpm for 15 min and the supernatant was concentrated to 450 ml by a Toyo-Roshi UP-20 apparatus with an ultrafiltration membrane. Then, proMMP-9 in this concentrated solution was purified by using columns of Gelatin-Sepharose and Concanavalin A-Sepharose. The pool containing proMMP-9 was dialyzed, concentrated (Toyo-Roshi UP-20) and applied to columns of Sephacryl S-200 and Green A matrix for the separation from TIMPs. The obtained proMMP-9 fraction was activated by TPCK-Trypsin (final conc. […] reaction mix.).
as §1, §2, §3, §4, §5, §6, §7, §8

A further assay concerns the target T3, MMP-12 catalytic domain (Homo sapiens, UniProt P39900).
T3 construct: catalytic domain(^100Phe˜^263Gly); His-tag; enterokinase digestion-site; made in house; host or cells: Escherichia coli
Nature of the assay: Assay for inhibitory activities on MMPs (fluorogenic peptide substrate): MMP-12. On the procedure:
(§9) In regard to MMP-12, catalytic domain(^100Phe˜^263Gly) was amplified with RT-PCR from Human Placenta Total RNA. This was cloned in Escherichia coli expression vector pTrc99AHE inserted with His-tag sequence and enterokinase digestion-site, induced and expressed by IPTG (Isopropyl-β-D-thiogalactopyranoside) and expressed in a insoluble fraction. Isolation of MMP-12 from a insoluble fraction was carried out by dissolving in modifier (6M urea) by a usual method and purification with metal chelate chromatography (Ni Chelateing Sepharose). And then removing modifier (6M urea) with dialysis and refolding of the enzyme spontaneously gave activated MMP-12.
as §1, §2, §3, §4, §5, §6, §7, §8

The next assay addresses T4, MMP-13 catalytic domain (Homo sapiens, UniProt P45452).
T4 construct: catalytic domain (^104Tyr˜^267Gly); His-tag; enterokinase digestion-site; made in house; host or cells: Escherichia coli
Nature of the assay: Assay for inhibitory activities on MMPs (fluorogenic peptide substrate): MMP-13. On the procedure:
as §9, with “MMP-13, mRNA was prepared from carcinoma cell SW1353 derived from human cartilage stimulate by IL-1, TNF and” for “MMP-12,”, “domain (^104Tyr˜^267Gly)” for “domain(^100Phe˜^263Gly)”, “RT-PCR.” for “RT-PCR from Human Placenta Total RNA.”, “MMP-1.3” for “MMP-12”, “dialyze” for “dialysis”, “MMP-13.” for “MMP-12.”
as §1, §2, §3, §4, §5, §6, §7, §8

The target of a further assay is T5, MMP-1 (Homo sapiens, UniProt P03956).
T5 construct: purchased Yagai
T5 sequence (P03956 100-469): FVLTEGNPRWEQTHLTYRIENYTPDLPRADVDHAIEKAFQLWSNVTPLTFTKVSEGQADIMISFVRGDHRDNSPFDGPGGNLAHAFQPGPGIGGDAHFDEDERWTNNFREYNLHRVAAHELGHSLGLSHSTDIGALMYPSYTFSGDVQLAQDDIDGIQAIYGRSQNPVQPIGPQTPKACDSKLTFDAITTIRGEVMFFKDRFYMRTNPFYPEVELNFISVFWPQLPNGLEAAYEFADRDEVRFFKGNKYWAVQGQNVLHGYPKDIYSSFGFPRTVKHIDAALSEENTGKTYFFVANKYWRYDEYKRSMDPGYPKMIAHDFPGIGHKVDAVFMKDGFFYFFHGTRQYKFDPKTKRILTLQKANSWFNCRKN
Nature of the assay: Assay for inhibitory activities on MMPs (fluorogenic peptide substrate): MMP-1. On the procedure: MMP-1 was purchased from Yagai.
as §1, §2, §3, §4, §5, §6, §7, §8

The next assay has as its target T6, MMP-8 catalytic domain (Homo sapiens, UniProt P22894).
T6 construct: catalytic domain (^99Phe˜^262Gly); His-tag; enterokinase digestion-site; made in house; host or cells: Escherichia coli
Nature of the assay: Assay for inhibitory activities on MMPs (fluorogenic peptide substrate): MMP-8.
From the text: In regard to MMP-8, catalytic domain (^99Phe˜^262Gly) was amplified with PCR using commercial available Human Bone Marrow cDNA. This was cloned in Escherichia. coli expression vector pTrc99AHE inserted with His-tag sequence and enterokinase digestion-site, induced and expressed by IPTG (Isopropyl-β-D-thiogalactopyranoside) and expressed in a insoluble fraction (Than F. Ho, M. Walid Qoronfleh, Robert C. Wahl, Trica A. Pulvino, Karen J. Vavra, Joe Falvo, Tracey M. Banks, Patricia G. Brake and Richard B. Ciccarelli: Gene expression, purification and characterization of recombinant human neutrophil collagenase. Gene 146, (1994) 297-301, Prepared by the a improved method of this material). Isolation of MMP-8 from insoluble fraction was carried out by dissolving in modifier (6M urea) by a usual method and purification with metal chelate chromatography. And then removing modifier (6M urea) with dialysis and refolding of the enzyme spontaneously gave activated MMP-8.
as §1, §2, §3, §4, §5, §6, §7, §8

T3 sequence (P39900 100-263): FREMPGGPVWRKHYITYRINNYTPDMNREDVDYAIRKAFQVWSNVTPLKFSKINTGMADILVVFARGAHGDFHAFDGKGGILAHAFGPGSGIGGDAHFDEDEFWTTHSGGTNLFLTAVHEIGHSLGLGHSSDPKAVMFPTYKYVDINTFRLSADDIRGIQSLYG
T6 sequence (P22894 99-262): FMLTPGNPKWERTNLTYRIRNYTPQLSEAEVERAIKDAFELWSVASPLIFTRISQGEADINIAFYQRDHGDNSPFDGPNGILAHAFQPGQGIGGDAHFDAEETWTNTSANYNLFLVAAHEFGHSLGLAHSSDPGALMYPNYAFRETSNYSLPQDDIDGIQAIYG

One may read the IC50 as the midpoint of a concentration-inhibition curve. `O=C(O)[C@@H](Cc1ccccc1)NS(=O)(=O)c1ccc(-n2nnc(-c3ccc4ccccc4c3)n2)cc1` [Compound C-1]: the IC50 is 140 nM against MMP-2; more than 10000 nM on MMP-9; 55 nM on MMP-12 catalytic domain; 450 nM at MMP-13 catalytic domain; more than 10000 nM on MMP-1; more than 10000 nM against MMP-8 catalytic domain.
For `CC(C)C[C@H](NS(=O)(=O)c1ccc(C#Cc2ccc3ccccc3c2)cc1)C(=O)O` [Compound A-11], the concentration for half-maximal inhibition (IC50) was 370 nM at MMP-2; 1270 nM on MMP-9; 5.9 nM against MMP-12 catalytic domain; 460 nM on MMP-13 catalytic domain; more than 10000 nM against MMP-1; 580 nM against MMP-8 catalytic domain.
Consider `O=C(O)[C@@H](Cc1ccccc1)NS(=O)(=O)c1ccc(C#Cc2cccc3ccccc23)s1` [Compound B-17], for which the IC50 is more than 10000 nM at MMP-2; more than 10000 nM at MMP-9; 820 nM against MMP-12 catalytic domain; more than 10000 nM against MMP-13 catalytic domain; more than 10000 nM on MMP-1; more than 10000 nM on MMP-8 catalytic domain.
Turning to `O=C(Nc1ccc(S(=O)(=O)N[C@@H](Cc2ccccc2)C(=O)O)cc1)c1ccc2ccccc2c1` [Compound D-2], the IC50 is 560 nM against MMP-2; 6560 nM on MMP-9; 150 nM against MMP-12 catalytic domain; 2330 nM at MMP-13 catalytic domain; more than 10000 nM on MMP-1; 4510 nM against MMP-8 catalytic domain.
Take `O=C(O)[C@H](NS(=O)(=O)c1ccc(C#Cc2ccc3ccccc3c2)cc1)c1ccc(O)cc1` [Compound A-12]: the IC50 is 370 nM at MMP-2; 1790 nM on MMP-9; 35 nM against MMP-12 catalytic domain; 1140 nM against MMP-13 catalytic domain; more than 10000 nM against MMP-1; 3630 nM against MMP-8 catalytic domain.
With `O=C(O)[C@H](Cc1ccccc1)NS(=O)(=O)c1ccc(C#Cc2ccc3c(c2)OCO3)cc1` [Compound A-22], the IC50 was 13 nM on MMP-2; 300 nM at MMP-9; 7.9 nM against MMP-12 catalytic domain; 37 nM against MMP-13 catalytic domain; more than 10000 nM against MMP-1; 10 nM against MMP-8 catalytic domain.
In the case of `O=C(O)CNS(=O)(=O)c1ccc(C#Cc2ccc3ccccc3c2)cc1` [Compound A-9], the IC50 against MMP-2 was 250 nM; on MMP-9, 1800 nM; at MMP-12 catalytic domain, 69 nM; on MMP-13 catalytic domain it was 2880 nM; against MMP-1 it was more than 10000 nM; against MMP-8 catalytic domain it was more than 10000 nM.
Consider `O=C(O)C[C@@H](NS(=O)(=O)c1ccc(C#Cc2ccc3ccccc3c2)s1)C(=O)O` [Compound B-12], for which the concentration for half-maximal inhibition (IC50) is 1250 nM at MMP-2; 1100 nM at MMP-9; 40 nM against MMP-12 catalytic domain; 1400 nM against MMP-13 catalytic domain; more than 10000 nM against MMP-1; 2600 nM on MMP-8 catalytic domain.
Take `CSCC[C@@H](NS(=O)(=O)c1ccc(C#Cc2ccc3ccccc3c2)s1)C(=O)O` [Compound B-10]: the half-maximal inhibitory concentration (IC50) on MMP-2 is 350 nM; at MMP-9, 870 nM; against MMP-12 catalytic domain, 8.8 nM; on MMP-13 catalytic domain, 950 nM; against MMP-1, more than 10000 nM; against MMP-8 catalytic domain, 1000 nM.
Consider `C[C@H](NS(=O)(=O)c1ccc(C#Cc2ccc3ccccc3c2)cc1)C(=O)O` [Compound A-8], for which the IC50 is 570 nM against MMP-2; 3280 nM on MMP-9; 16 nM against MMP-12 catalytic domain; 2770 nM against MMP-13 catalytic domain; more than 10000 nM against MMP-1; 2440 nM against MMP-8 catalytic domain.
As for `O=C(O)[C@H](Cc1ccccc1)NS(=O)(=O)c1ccc(C#Cc2ccc3ccccc3c2)cc1` [Compound A-3], the half-inhibitory concentration (IC50) was more than 10000 nM against MMP-2; more than 10000 nM at MMP-9; 21 nM against MMP-12 catalytic domain; more than 10000 nM at MMP-13 catalytic domain; more than 10000 nM at MMP-1; more than 10000 nM on MMP-8 catalytic domain.
As for `C[C@H](NS(=O)(=O)c1ccc(C#Cc2ccc3ccccc3c2)s1)C(=O)O` [Compound B-7], the IC50 is 2030 nM against MMP-2; 6310 nM at MMP-9; 160 nM at MMP-12 catalytic domain; more than 10000 nM at MMP-13 catalytic domain; more than 10000 nM against MMP-1; 7790 nM on MMP-8 catalytic domain.
On MMP-1, `CC(C)[C@H](NS(=O)(=O)c1ccc(C#Cc2ccc3ccccc3c2)cc1)C(=O)O` [Compound A-6] registered an IC50 of more than 10000 nM.
Consider `O=C(O)[C@@H](Cc1c[nH]c2ccccc12)NS(=O)(=O)c1ccc(C#Cc2ccc3ccccc3c2)s1` [Compound B-3], for which the half-inhibitory concentration (IC50) on MMP-9 was 750 nM; at MMP-12 catalytic domain it was 16 nM; against MMP-13 catalytic domain it was more than 10000 nM; against MMP-1, more than 10000 nM; against MMP-8 catalytic domain, 1400 nM.
